Where two headings read alike, the source gives them in different places. Peptide text beside a SMILES is read from it. * marks the point of attachment. Galloyl = O=C(c1cc(O)c(O)c(O)c1)*; X1 = CN(C)c1ccc(C(=O)*)cc1
Columns and labels:
[1] = MTT cytotoxicity assay in Huh-7 cells; type: cell-based; details: human
Protocol: (§1) Cytotoxicity in BHK-21 and Huh-7 cells was evaluated using the 3-(4,5-dimethylthiazol-2-yl)-2,5-diphenyltetrazolium bromide (MTT) assay as previously described. The cells (5 × 10^3 per well) were seeded in 96-well culture plates (TPP, Trasadingen, Switzerland). After 24 h, the cells were incubated with the peptides at concentrations of 1.6, 3.1, 6.3, 12.5, 25, 50, and 100 µM for 24 h. Then, the medium containing the peptides was removed, and 100 µL of MTT (Sigma-Aldrich, St. Louis, MO, USA) diluted in DMEM (Cultilab, Campinas, SP, Brazil) (1 mg/mL) was added to each well of the plate (1 mg/mL). After 30 min of incubation at 37 °C, the medium containing MTT (Sigma-Aldrich, St. Louis, MO, USA) was removed, and 100 µL of dimethylsulfoxide (DMSO, Synth, Diadema, SP, Brazil) was added to the cells. The plate was agitated at 200 rpm. After 5 min, the absorbance was measured at a wavelength of 572 nm on a plate reader (FLUOstar Omega/BMG LABTECH, Ortenberg, Germany). The CC50 values were calculated using GraphPad Prism 5.0 software (GraphPad Software, San Diego, CA, USA).
(§2) All the described experiments were performed in three independent events, each of which was carried out in three (cytotoxicity) and four (antiviral activity) technical replicates. The CC50 and EC50 values were determined by nonlinear regression of the dose-response curves (Log [peptide] × response). The statistical significance was determined employing the paired Student’s t-test for parametric results and the Mann–Whitney test for nonparametric data using GraphPad Prism 5.0 software (GraphPad Software, San Diego, CA, USA). A p-value < 0.05 was considered statistically significant.

[2] = MTT cytotoxicity assay in BHK-21 cells; type: cell-based; details: hamster
Protocol: as §1, §2

[3] = tested on: CHIKV-NLuc; type: cell-based, Chikungunya virus; details: CHIKV-NLuc MOI 0.1, 16 h, NLuc activity
Protocol: Measurement of the activity of the virus-encoded NanoLuciferase (NLuc) reporter was used to evaluate the antiviral activity of the peptides against CHIKV-NLuc at the end of every assay with the peptides. Cells were infected with CHIKV-NLuc, and the supernatant was aspirated 16 h post-infection (h.p.i.), and each well of the plate was washed with PBS solution. Then, 30 µL of Renilla Luciferase Assay Lysis Buffer (Promega, Madison, WI, USA) was added to the cells. After 30 min, 50 μL of substrate for Renilla Luciferase (Renilla Luciferase assay reagent, Promega, Madison, WI, USA) was automatically injected in the wells into the plate reader (FLUOstar Omega/BMG LABTECH, Ortenberg, Germany), and the light intensity reading was performed. The values obtained are shown as the percentage of protein NLuc activity in the control (samples treated with sterile water).
The effects of the peptides on the CHIKV infectious cycle were analyzed as previously described. BHK-21 and Huh-7 cells (1 × 10^4 per well) were seeded in 96-well white culture plates (Greiner Bio-One, Americana, SP, Brazil) for 24 h. Then, the virus at an MOI of 0.1 and the peptides at the MNTC were simultaneously added to the cells. The plate was incubated at 37 °C for 16 h, and then antiviral activity against CHIKV was evaluated through NLuc activity. […] The SI was calculated using the ratio CC50/EC50.
as §2

[4] = tested on: BHK-21 and Huh-7 cells; experiment: MTT cytotoxicity, maximum nontoxic concentration over both cell lines; type: cell-based, hamster; human
Protocol: The cytotoxicity of the peptides GA-Hecate, PSSct1905, and PSSct1910 was evaluated in baby hamster kidney fibroblast cells (BHK-21) and human hepatocarcinoma epithelial cells (Huh-7). We defined the maximum nontoxic concentration (MNTC), expressed in µM, as the highest peptide concentration that kept at least 80% of BHK-21 and Huh-7 cells viable within 24 h.
as §1, with “The plate was agitated at 200 rpm.” left out

Structure (SMILES) | CC50 at 24 h [1] | CC50 at 24 h [2] | EC50 ([3]; BHK-21 cells) | EC50 ([3]; Huh-7 cells) | increase in the CC50 value compared to GA-Hecate ([4]; more prominent in BHK-21 cells) | MNTC (maximum nontoxic concentration) ([4]; highest concentration keeping at least 80% of BHK-21 and Huh-7 cells viable within 24 h, MTT)
CC(C)C[C@H](NC(=O)[C@H](C)NC(=O)[C@H](CCCCN)NC(=O)[C@H](CCCCN)NC(=O)[C@H](CC(C)C)NC(=O)[C@H](C)NC(=O)[C@H](CCCCN)NC(=O)[C@H](CCCCN)NC(=O)[C@H](CC(C)C)NC(=O)[C@H](CCCCN)NC(=O)[C@H](CCCCN)NC(=O)[C@H](CC(C)C)NC(=O)[C@H](C)NC(=O)[C@H](CCCCN)NC(=O)[C@H](CCCCN)NC(=O)[C@H](CC(C)C)NC(=O)[C@H](C)NC(=O)[C@H](CCCCN)NC(=O)[C@H](CC(C)C)NC(=O)[C@H](C)NC(=O)[C@H](CC(C)C)NC(=O)[C@H](C)NC(=O)[C@H](Cc1ccccc1)NC(=O)c1cc(O)c(O)c(O)c1)C(N)=O [GA-Hecate] (Galloyl-FALALKALKKALKKLKKALKKAL-NH2) | 221 µM | 23.3 µM | 5.7 µM | 4.5 µM |  | 
CC(C)C[C@H](NC(=O)[C@H](CCCCN)NC(=O)[C@H](CCCCN)NC(=O)[C@H](CC(C)C)NC(=O)[C@H](C)NC(=O)[C@H](CCCCN)NC(=O)[C@H](CCCCN)NC(=O)[C@H](CC(C)C)NC(=O)[C@H](C)NC(=O)[C@H](CCCCN)NC(=O)[C@H](CC(C)C)NC(=O)[C@H](C)NC(=O)[C@H](CC(C)C)NC(=O)[C@H](C)NC(=O)[C@H](Cc1ccccc1)NC(=O)c1cc(O)c(O)c(O)c1)C(=O)O [PSSct1905, GA-FALALKALKKALKKL-COOH] (Galloyl-FALALKALKKALKKL-OH) | 205 µM | 56.5 µM | 8.4 µM | 7.1 µM | approximately 2 fold | 
CC(C)C[C@H](NC(=O)[C@H](C)NC(=O)[C@H](CCCCN)NC(=O)[C@H](CCCCN)NC(=O)[C@H](CC(C)C)NC(=O)[C@H](C)NC(=O)[C@H](CCCCN)NC(=O)[C@H](CCCCN)NC(=O)[C@H](CC(C)C)NC(=O)[C@H](CCCCN)NC(=O)[C@H](CCCCN)NC(=O)[C@H](CC(C)C)NC(=O)[C@H](C)NC(=O)[C@H](CCCCN)NC(=O)[C@H](CCCCN)NC(=O)[C@H](CC(C)C)NC(=O)[C@H](C)NC(=O)[C@H](CCCCN)NC(=O)[C@H](CC(C)C)NC(=O)[C@H](C)NC(=O)[C@H](CC(C)C)NC(=O)[C@H](C)NC(=O)[C@H](Cc1ccccc1)NC(=O)c1ccc(N(C)C)cc1)C(N)=O [PSSct1910] (X1-FALALKALKKALKKLKKALKKAL-NH2) | 7.7 µM | 5.4 µM | 1.1 µM | 0.2 µM |  | 1.6 µM
